Test results taken from US5712367A, “Process for the solubilization of peptides and process for peptide synthesis” (Rhone-Poulenc Chimie, priority 1989, dated 1998).

How the values were obtained:
Assay type in all cases: physicochemical
[1] = Solubility of N-tert-butyloxycarbonylpentaglycine esters (CH3)3COCO(NHCH2CO)5OR in anisole, CH2Cl2 and H2O; details: for Solubility in g/100 cm^3 CH2 Cl2: solvent CH2Cl2; for Solubility in g/100 cm^3 H2 O: solvent H2O; for Solubility in g/100 cm^3 anisole: solvent anisole
[2] = Partition coefficient of N-tert-butyloxycarbonylpentaglycine esters between CH2Cl2 and H2O
[3] = Measurement of the solubilities of the molecules of formula (L)-seryl-A--L in water; details: measured in the filtrate after grinding in water for 15 minutes
Description: Ammonia gas was passed into this solution at room temperature. The ammonium chloride precipitate obtained was rapidly filtered off. […] The product obtained after concentration was immediately ground in water for 15 minutes at room temperature and then filtered off.
The solubility of the product of formula (L)-seryl-A--L was measured in the filtrate.

Row | SMILES | Solubility in g/100 cm^3 CH2 Cl2 [1] [g/100 cm^3] | Solubility in g/100 cm^3 H2 O [1] [g/100 cm^3] | Solubility in g/100 cm^3 anisole [1] | Partition coefficient between CH2 Cl2 and H2 O [2] | solubility in water at 25° C. [3] [mg/mL]
1 | COC(=O)CNC(=O)CNC(=O)CNC(=O)CNC(=O)CNC(=O)OC(C)(C)C [CH3] | 0.33 | 0.50 | insoluble | 0.66 | –
2 | CC(C)(C)OC(=O)NCC(=O)NCC(=O)NCC(=O)NCC(=O)NCC(=O)OCc1cccc(C(=O)OCc2ccc(-c3ccccc3)cc2)c1 [Example R1] | > 10 | 0.0016 | 5 g/100 cm^3 | > 1,000 | –
3 | CC(C)(C)OC(=O)NCC(=O)NCC(=O)NCC(=O)NCC(=O)NCC(=O)OCc1cccc(C(=O)OCc2cccc(Oc3ccccc3)c2)c1 [Example R2] | > 10 | 0.0008 | 5 g/100 cm^3 | > 2,000 | –
4 | N[C@@H](CO)C(=O)OCc1ccccc1 [L-Serine benzyl ester] | – | – | – | – | > 100
5 | CC(C)(C)OC(=O)NCC(=O)NCC(=O)NCC(=O)NCC(=O)NCC(=O)OCc1ccccc1 [benzyl] | 0.070 | 0.017 | insoluble | 4.1 | –
